Data taken from the NIST ThermoML archive (doi:10.1021/je034102r).

Assay: molar heat capacity at constant pressure
Details: 101.33 kPa, Liquid, heat bridge-scanning calorimeter

CCCCn1cc[n+](C)c1.F[P-](F)(F)(F)(F)F [1-butyl-3-methylimidazolium hexafluorophosphate]
Details	molar heat capacity at constant pressure [J/K/mol]
326.94 K	426.56
327.06 K	426.56
327.19 K	426.56
327.31 K	426.56
327.44 K	426.84
327.72 K	427.13
327.85 K	427.13
327.98 K	427.13
328.1 K	427.13
328.23 K	427.41
328.35 K	427.41
328.48 K	427.41
328.61 K	427.41
328.73 K	427.41
328.99 K	427.69
329.11 K	427.69
329.24 K	427.98
329.37 K	427.69
329.49 K	427.98
329.62 K	427.98
329.74 K	428.26
329.87 K	428.26
330 K	428.26
330.12 K	427.98
330.25 K	428.26
330.52 K	428.55
330.65 K	428.55
330.77 K	428.55
330.9 K	428.55
331.03 K	428.55
331.15 K	428.55
331.28 K	428.83
331.4 K	429.12
331.53 K	429.12
331.79 K	429.12
331.91 K	429.12
332.04 K	429.12
332.16 K	429.12
332.29 K	429.12
332.42 K	429.4
332.54 K	429.4
332.67 K	429.4
332.79 K	429.4
332.92 K	429.4
333.05 K	429.4
333.32 K	429.68
333.45 K	429.68
333.58 K	429.97
333.71 K	429.97
333.83 K	429.97
333.96 K	429.97
334.08 K	429.97
334.21 K	429.97
334.34 K	429.97
334.59 K	430.25
334.72 K	430.25
334.84 K	430.25
334.97 K	430.25
335.1 K	430.54
335.22 K	430.54
335.35 K	430.54
335.47 K	430.54
335.6 K	430.82
335.73 K	430.82
335.85 K	430.82
336.12 K	431.1
336.25 K	430.82
336.38 K	430.82
336.5 K	431.1
336.63 K	431.1
336.75 K	431.1
336.88 K	431.39
337.01 K	431.39
337.13 K	431.39
337.39 K	431.39
337.51 K	431.39
337.64 K	431.39
337.76 K	431.39
337.89 K	431.67
338.02 K	431.67
338.14 K	431.96
338.27 K	431.96
338.39 K	431.96
338.52 K	432.24
338.64 K	432.24
338.91 K	432.24
339.04 K	432.53
339.17 K	432.53
339.29 K	432.53
339.43 K	432.81
339.55 K	432.81
339.68 K	432.81
339.8 K	432.81
339.93 K	433.09
340.19 K	433.09
340.31 K	433.38
340.44 K	433.38
340.56 K	433.38
340.69 K	433.38
340.82 K	433.66
340.94 K	433.66
341.07 K	433.66
341.19 K	433.66
341.32 K	433.95
341.45 K	433.95
341.72 K	434.23
341.85 K	434.23
341.97 K	434.23
342.1 K	434.23
342.22 K	434.23
342.35 K	434.51
342.48 K	434.51
342.6 K	434.51
342.73 K	434.51
343 K	434.8
343.13 K	434.8
343.25 K	434.8
343.38 K	435.08
343.51 K	435.08
343.63 K	435.08
343.76 K	435.37
343.88 K	435.37
344.01 K	435.37
344.13 K	435.37
344.26 K	435.65
344.53 K	435.94
344.66 K	435.65
344.78 K	435.94
344.91 K	435.94
345.03 K	435.94
345.16 K	435.94
345.29 K	436.22
345.42 K	436.5
345.55 K	436.22
345.82 K	436.79
345.95 K	436.5
346.07 K	437.07
346.2 K	436.79
346.32 K	437.07
346.45 K	437.07
346.57 K	437.07
346.7 K	437.07
346.82 K	437.36
346.95 K	437.36
347.08 K	437.64
347.35 K	437.36
347.47 K	437.64
347.6 K	437.64
347.72 K	437.64
347.85 K	437.93
347.97 K	437.93
348.1 K	437.93
348.22 K	437.93
348.35 K	438.21
348.63 K	438.21
348.76 K	438.21
348.88 K	438.49
349.01 K	438.21
349.13 K	438.49
349.26 K	438.49
349.38 K	438.78
349.51 K	438.78
349.63 K	438.78
349.76 K	438.78
349.88 K	439.06
350.19 K	439.35
350.32 K	439.35
350.44 K	439.35
350.57 K	439.35
350.69 K	439.63
350.82 K	439.63
350.94 K	439.63
351.07 K	439.63
351.21 K	439.35
351.49 K	439.91
351.61 K	439.63
351.74 K	439.91
351.86 K	440.2
351.99 K	440.2
352.11 K	440.2
352.24 K	440.2
352.36 K	440.48
352.49 K	440.48
352.61 K	440.48
352.74 K	440.77
353.01 K	440.77
353.13 K	440.77
353.26 K	441.05
353.38 K	441.05
353.51 K	441.34
353.64 K	441.34
